In patent publication US12156871B2, “Substituted azacycles as muscarinic M1 receptor positive allosteric modulators” (SUVEN LIFE SCIENCES LIMITED, priority 2017, dated 2024):

What was measured:
[1] = Protein binding assay (HT dialysis), human liver microsomes; format: in vitro ADME; settings: pH 7.4, Human liver microsomes 0.5 mg/mL, Mean ± SEM, n = 3, read-out: Fu Microsomes (converted)
Method: (§1) Unbound fractions of test compounds in plasma, brain homogenate and liver microsomes were determined using high-throughput dialysis (HT dialysis). Briefly, dialysis membranes were soaked in deionized water for 20 minutes and then in deionized water with 30% ethanol for 15 minutes and finally in phosphate buffer until use. Membranes were rinsed in phosphate buffer before assembling. The membranes were layered between teflon bars of dialysis assembly. Stock solutions of test compound/comparative compound were prepared at 10 mM in DMSO, diluted to 1 mM in acetonitrile and further diluted to 100 μM in mixture of water and acetonitrile (1:1 v/v). Human plasma (pool of 3) was prepared from human blood (3 donors) by centrifuging at 4000 rpm for 10 min at 4° C. Rat and dog blood were obtained on the day of the study and centrifuged to obtain plasma. Rat brains were isolated, cleaned and homogenized with 2 volumes of buffer (3 fold dilution). Liver microsomes were prepared at 0.5 mg/mL in phosphate buffer (100 mM, pH 7.4). The dialysate chambers were loaded with 150 μL of 100 mM phosphate buffer (pH 7.4) in triplicates. The matrix chambers were loaded with 150 μL of the plasma or brain homogenate or microsomal suspension spiked with test compound/comparative compound at a final concentration of 1 μM. 50 μL of the sample was removed from both the chambers at 0 h. The plate was sealed and incubated at 37° C. for 6 h at 100 rpm. After 6 h, 50 μL of the sample was removed from both the chambers. Equal volumes of buffer or human plasma/microsomal suspension were added to the plasma/microsomal and buffer samples respectively to create identical sample matrices for analysis. The samples were precipitated with 150 μL of acetonitrile containing fluoxetine as an internal standard. All the samples were centrifuged at 10000 rpm for 10 minutes at 4° C.

[2] = Protein binding assay (HT dialysis), rat brain homogenate; format: in vitro ADME; settings: pH 7.4, Mean ± SEM, n = 3, read-out: Fu Brain
Method: as §1

[3] = Rodent brain penetration study; format: in vivo, Male Wistar rats; settings: male, Wistar, brain/plasma, po; rat, 3 mg/kg, p.o. @ 1.0 hr; read-out: Single dose Rat Brain Penetration (Cb/Cp)
Method: Male Wistar rats (260±40 grams) were used as experimental animals. Three animals were housed in each cage. Animals were given water and food ad libitum throughout the experiment and maintained on a 12 h light/dark cycle.
Brain penetration was determined in discrete manner in rats. One day prior to dosing day, male Wistar rats were acclimatized and randomly grouped according to their weight. At each time point (0.5, 1 and 2 h) n=3 animals were used.
The test compounds were suitably preformulated and administered orally at (free base equivalent) 3 mg/kg. Blood samples were removed via cardiac puncture by using isoflurane anesthesia. The animals were sacrificed to collect brain tissue. Plasma was separated and brain samples were homogenized and stored frozen at −20° C. until analysis. The concentrations of the test compounds in plasma and brain were determined using LC-MS/MS method.
The test compounds were quantified in plasma and brain homogenate by qualified LC-MS/MS method using suitable extraction technique. The test compounds were quantified in the calibration range of 1-500 ng/mL in plasma and brain homogenate. Study samples were analyzed using calibration samples in the batch and quality control samples spread across the batch.

[4] = Object recognition task model; format: in vivo, Male Wistar rats; settings: rat, 3 mg/kg, p.o.; for Exploration time mean ± S.E.M, Familiar object / Exploration time mean ± S.E.M, Novel object: choice trial 24 h after T1
Method: The cognition enhancing properties of compounds of this invention were estimated by using this model.
Male Wistar rats (8-10 weeks old) were used as experimental animals. Four animals were housed in each cage. Animals were kept on 20% food deprivation from a day prior to experimentation. Water was provided ad libitum throughout the experiment. Animals were maintained on a 12 h light/dark cycle in temperature and humidity controlled room. The experiment was carried out in an circular made up of acrylic. Rats were habituated to individual arenas for up to 1 h in the absence of any objects on day 1.
One group of 12 rats received vehicle and another set of animals received compound of the formula (I), before the familiar (T1) and choice (T2) trials. During the familiarization phase, (T1), the rats were placed individually in the arena for 3 minutes, in which two identical objects (a1 and a2) were positioned 10 cm from the wall. 24 h after T1, trial for long-term memory test was performed. The same rats were placed in the same arena as they were placed in T1 trial. During the choice phase (T2) rats were allowed to explore the arena for 3 minutes in presence of a copy of familiar object (a3) and one novel object (b). During the T1 and T2 trial, explorations of each object (defined as sniffing, licking, chewing or having moving vibrissae whilst directing the nose towards the object at a distance of less than 1 cm) were recorded using stopwatch. • T1 is the total time spent exploring the familiar objects (a1+a2). • T2 is the total time spent exploring the familiar object and novel object (a3+b).
The object recognition test was performed as described by Ennaceur, A., Delacour, J., 1988, A new one-trial test for neurobiological studies of memory in rats—Behavioural data, Behav. Brain Res., 31, 47-59.

[5] = Protein binding assay (HT dialysis), human plasma; format: in vitro ADME; settings: pH 7.4, Mean ± SEM, n = 3, read-out: Fu Plasma (converted)
Method: as §1

[6] = Protein binding assay (HT dialysis), dog plasma; format: in vitro ADME; settings: pH 7.4, Mean ± SEM, n = 3, read-out: Fu Plasma (converted)
Method: as §1

[7] = Protein binding assay (HT dialysis), rat plasma; format: in vitro ADME; settings: pH 7.4, Mean ± SEM, n = 3, read-out: Fu Plasma
Method: as §1

| fraction unbound at 6 h, 1 μM [1] | fraction unbound at 6 h, 1 μM [2] | Kp at 1 h [3] | fraction unbound at 6 h, 1 μM [5] | fraction unbound at 6 h, 1 μM [6] | fraction unbound at 6 h, 1 μM [7] | SMILES | Inference [4] | Exploration time mean ± S.E.M, Familiar object [4] | Exploration time mean ± S.E.M, Novel object [4] |
| --- | --- | --- | --- | --- | --- | --- | --- | --- | --- |
| 0.87 | 0.084 ± 0.002 | 0.45 ± 0.13 | 0.192 | 0.116 | 0.103 ± 0.003 | COc1cccc(Cc2cc3c(nc2C)CN([C@H]2CCCC[C@@H]2O)C3=O)c1 [Example 38, 6-(1S,2S-2-Hydroxycyclohexyl)-2-methyl-3-(3-methoxybenzyl)-6,7-dihydropyrrolo[3,4-b]pyridin-5-one] | Active | 10.12 ± 2.12 s | 19.89 ± 3.32 s |
| 0.938 | 0.123 ± 0.009 | 0.35 ± 0.08 | 0.124 | 0.115 | 0.113 ± 0.003 | COc1ccc(Cc2cc3c(nc2C)CN([C@H]2CCCC[C@@H]2O)C3=O)cc1 [Example 6, 6-(1S,2S-2-Hydroxycyclohexyl)-2-methyl-3-(4-methoxybenzyl)-6,7-dihydropyrrolo[3,4-b]pyridin-5-one] | Active | 7.27 ± 1.31 s | 15.9 ± 2.47 s |
